For data set [1], the system named is A. bumannii. The experiment in a line: in vitro antibacterial activity (MIC50). The data set is classed as cell-based. The settings on record: for Amount of Antimicrobial Agent required for Inhibition / in vitro antibacterial activity of individual antibiotic (MIC50) / MIC50: A. bumannii; for reduction of MIC50 of Rifampicin in cocktail with silver (control = 1) / reduction of MIC50 of Tobramycin in cocktail with silver (control = 1): A. baumannii.

Data set [2] deals with P. aeruginosa. The experiment in a line: in vitro antibacterial activity (MIC50). The data set is classed as cell-based.
Data set [3] has as its system P. mirabilis. The experiment in a line: in vitro antibacterial activity (MIC50). Type of data set: cell-based.
For data set [4], the system named is 4 bacterial strains (A. bumannii, P. aeruginosa, P. mirabilis and S. aureus). The experiment in a line: in vitro antibacterial activity (MIC50), summary over strains. Type of data set: cell-based. The settings on record: against all 4 bacterial strains.
For data set [5], the system named is S. aureus. The experiment in a line: in vitro antibacterial activity (MIC50). Type of data set: cell-based. The settings on record: for MIC50: Staphylococcus aureus.
Data set [6] relates to A. baumannii. The experiment in a line: MIC50 for inhibition ring formation (MICfir), agar plate. The settings on record: Acinetobacter baumannii; A.b; read-out: 50% minimum inhibitory concentrations (MIC50) needed for growth ring formation. Type of data set: cell-based.
Data set [7] concerns P. aeruginosa. The data set is described as above. Type of data set: cell-based. The settings on record: Pseudomonas aeruginosa; P.a; read-out: 50% minimum inhibitory concentrations (MIC50) needed for growth ring formation.
Data set [8] has as its system P.m. The description is as above. Particulars: Proteus mirabilis, read-out: 50% minimum inhibitory concentrations (MIC50) needed for growth ring formation. The data set is classed as cell-based.
The subject of data set [9] is S. aureus. The data set is described as above. The settings on record: Staphylococcus aureus; S.a; read-out: 50% minimum inhibitory concentrations (MIC50) needed for growth ring formation. Type of data set: cell-based.
The test system of data set [10] is S. aureus methicillin resistant strain. Described as above. The data set is classed as cell-based. Particulars: Staphylococcus aureus, MRSA; read-out: 50% minimum inhibitory concentrations (MIC50) needed for growth ring formation.
Data set [11] concerns K. pneumoniae. Described as above. Type of data set: cell-based. The settings on record: Klebsiella pneumoniae; K.p; read-out: 50% minimum inhibitory concentrations (MIC50) needed for growth ring formation.
In data set [12] the test system is A. baumannii. The experiment in a line: effect of storage time on antibiotic functionality. The data set is classed as physicochemical. The settings on record: 1 mg/ml solution stored at 37° C., day 0 to day 35. The protocol:
The effect of storage time on antibiotic functionality of tobramycin and rifampicin against A. baumannii were also tested. Tobramycin and rifampicin solutions (1 mg/ml in water and DMSO, respectively) were kept at room temperature (24° C.) or 37° C. for up to 35 days, and the antimicrobial activities of the antibiotics at different time points were tested by applying the antibiotics to A. Baumannii. MIC50 were determined and compared. […] P values for tobramycin and rifampicin (from day 0 to day 35) are 0.593 and 0.442 respectively (FIG. 3)

The structures appear in SMILES notation. In brackets after ≈: the same amount, converted by molar mass.

For `CCC[C@@H]1C[C@@H](C(=O)N[C@@H]([C@H]2O[C@H](SC)[C@H](O)[C@@H](O)[C@H]2O)[C@H](C)Cl)N(C)C1` [Clindamycin], the “Amount of Antimicrobial Agent required for Inhibition” value (shortened to “Amount … for Inhibition”) in data set [1] is 2.72 ± 0.68 mg/mL; in [2] it was over 1000 mg/mL; in data set [3], 23.88 ± 8.43 mg/mL. The figures for the “in vitro antibacterial activity of individual antibiotic (MIC50)” value (“in vitro antibacterial activity” below) in data set [1], in data set [2] and in data set [3] were 2.72 ± 0.68 mg/mL, over 1000 mg/mL and 23.88 ± 8.43 mg/mL, respectively.

Regarding `C[C@@H](O)[C@H]1C(=O)N2C(C(=O)O)=C(SCCN=CN)C[C@H]12` [Imipenem], the “Amount … for Inhibition” value in data set [1] stood at 10.25 ± 2.33 mg/mL; in data set [2], 0.91 ± 0.56 mg/mL; in [3], 1.02 ± 0.01 mg/mL. Moreover, the “in vitro antibacterial activity” value was 10.25 ± 2.33 mg/mL in data set [1], 0.91 ± 0.56 mg/mL in [2] and 1.02 ± 0.01 mg/mL in data set [3]. In addition, in [4], the MIC50 was under 0.01 mg/mL.

`CO[C@H]1/C=C/O[C@@]2(C)Oc3c(C)c(O)c4c(O)c(c(/C=N/N5CCN(C)CC5)c(O)c4c3C2=O)NC(=O)/C(C)=C\C=C\[C@H](C)[C@H](O)[C@@H](C)[C@@H](O)[C@@H](C)[C@H](OC(C)=O)[C@@H]1C` [Rifampicin]: the “Amount … for Inhibition” value in data set [1] came to 0.085 ± 0.01 mg/mL; in [2] it was 19.08 ± 6.14 mg/mL; in data set [3] it was 3.77 ± 0.92 mg/mL. Also, the MIC50 was at most 0.001 mg/mL in data set [1]; at most 0.001 mg/mL in [5]; under 0.01 mg/mL in data set [4]; 0.045 ± 0.0026 mg/mL (≈ 54.7 µM) in [6]; 0.185 ± 0.0158 mg/mL (≈ 225 µM) in [7]; 0.026 ± 0.0035 mg/mL (≈ 31.6 µM) in [8]. For the same compound, the MIC50 in [9] came to 0.02 ± 0.001 µg/mL (≈ 0.0243 µM); in data set [10], 0.02 ± 0.001 µg/mL (≈ 0.0243 µM); in data set [11], 0.045 ± 0.0036 mg/mL (≈ 54.7 µM). Besides, the “in vitro antibacterial activity” value in [1] was determined as 0.085 ± 0.01 mg/mL; in data set [2], 19.08 ± 6.14 mg/mL; in data set [3] it was 3.77 ± 0.92 mg/mL.

With `[Ag+]` [Silver Ion], the “Amount … for Inhibition” value in data set [1] is 1.52 ± 0.73 mg/mL; in data set [2], 5.34 ± 3.07 mg/mL; in data set [3], 4.56 ± 1.49 mg/mL. In addition, the “reduction of MIC50 of Rifampicin in cocktail with silver (control = 1)” value in data set [1] (Silver Ion at Mic 12.5) was found to be 1.73 fold; in [1] (Silver Ion at Mic 25), 3.6 fold; in data set [1] (Silver Ion at Mic 50) it was 9 fold; in [2] (Silver Ion at Mic 12.5), 1.6 fold; in data set [2] (Silver Ion at Mic 25), 4.1 fold; in [2] (Silver Ion at Mic 50) it was 10.4 fold. For the same compound, the “reduction of MIC50 of Rifampicin in cocktail with silver (control = 1)” value in data set [3] (Silver Ion at Mic 12.5) is 0.74 fold; in data set [3] (Silver Ion at Mic 25), 2.4 fold; in [3] (Silver Ion at Mic 50), 6.3 fold; in data set [5] (Silver Ion at Mic 12.5) it was 1 fold; in data set [5] (Silver Ion at Mic 25), 9.3 fold; in data set [5] (Silver Ion at Mic 50), 21 fold. The “reduction of MIC50 of Tobramycin in cocktail with silver (control = 1)” value in [1] (Silver Ion at Mic 12.5) worked out at 2 fold; in [1] (Silver Ion at Mic 25), 4.2 fold; in data set [2] (Silver Ion at Mic 12.5), 1.6 fold; in [2] (Silver Ion at Mic 25) it was 4.1 fold; in [2] (Silver Ion at Mic 50) it was 10.4 fold; in [3] (Silver Ion at Mic 12.5) it was 0.74 fold. Besides, the “reduction of MIC50 of Tobramycin in cocktail with silver (control = 1)” value in data set [3] (Silver Ion at Mic 25) turned out to be 2.5 fold; in data set [3] (Silver Ion at Mic 50), 6.5 fold; in [5] (Silver Ion at Mic 12.5), 1.13 fold; in data set [5] (Silver Ion at Mic 25) it was 9.3 fold; in data set [5] (Silver Ion at Mic 50), 21 fold.

For `NC[C@H]1O[C@H](O[C@H]2[C@H](O)[C@@H](O[C@H]3O[C@H](CO)[C@@H](O)[C@H](N)[C@H]3O)[C@H](N)C[C@@H]2N)[C@H](N)C[C@@H]1O` [Tobramycin], the entries for the “Amount … for Inhibition” value in [1], in data set [2] and in data set [3] were 1.05 ± 0.02 mg/mL, 0.44 ± 0.12 mg/mL and 7.2 ± 0.73 mg/mL, respectively. Moreover, the MIC50 in data set [1] is at most 0.001 mg/mL; in data set [5] it was at most 0.001 mg/mL; in data set [4], under 0.01 mg/mL; in data set [6], 0.0071 ± 0.0005 mg/mL (≈ 15.2 µM); in [7], 0.0056 ± 0.0002 mg/mL (≈ 12 µM); in data set [8], 0.0031 ± 0.0002 mg/mL (≈ 6.63 µM). Further, the MIC50 is 2.2 ± 0.16 µg/mL (≈ 4.71 µM) in data set [9], over 200 µg/mL in [10] and 0.00038 ± 5e-05 mg/mL (≈ 0.813 µM) in [11]. The figures for the “in vitro antibacterial activity” value in data set [1], in data set [2] and in data set [3] were 1.05 ± 0.02 mg/mL, 0.44 ± 0.12 mg/mL and 7.2 ± 0.73 mg/mL, respectively. The “change of MIC50 on storage (antibiotic functionality)” value in data set [12] is listed as “no significantly change”.

Consider `CN[C@H](CC(C)C)C(=O)N[C@H]1C(=O)N[C@@H](CC(N)=O)C(=O)N[C@H]2C(=O)N[C@H]3C(=O)N[C@H](C(=O)N[C@H](C(=O)O)c4cc(O)cc(O)c4-c4cc3ccc4O)[C@H](O)c3ccc(c(Cl)c3)Oc3cc2cc(c3O[C@@H]2O[C@H](CO)[C@@H](O)[C@H](O)[C@H]2O[C@H]2C[C@](C)(N)[C@H](O)[C@H](C)O2)Oc2ccc(cc2Cl)[C@H]1O` [Vancomycin], for which the “Amount … for Inhibition” value in [1] is 79.4 ± 4.1 mg/mL; in [2] it was over 1000 mg/mL; in data set [3] it was over 1000 mg/mL. For the same compound, the “in vitro antibacterial activity” value in data set [1] is 79.4 ± 4.1 mg/mL; in data set [2], over 1000 mg/mL; in data set [3], over 1000 mg/mL.

The values are drawn from patent publication US20130089599A1, “NANO-ENCAPSULATED THERAPEUTICS FOR CONTROLLED TREATMENT OF INFECTION AND OTHER DISEASES” (The United States of America as Represented by the …, priority 2011, published 2013).
